Assay results from US20160046618A1, “Cyclopropyl Fused Thiazin-2-Amine Compounds as Beta-Secretase Inhibitors and Methods of Use” (AMGEN INC., priority 2014, published 2016).
Where two headings read alike, the source gives them in different places.

Tests used:
human recombinant BACE1 = human recombinant BACE1 (Homo sapiens (Human), UniProt P56817); assay: In vitro enzymatic BACE1 FRET assay; type: biochemical; conditions: BACE1 FRET enzyme assay; read-out: IC50 IP (μM) BACE1 enzyme
Method: These recombinant proteins were further purified using Ni-NTA affinity chromatography (Qiagen). […] This assay is effectively started by the addition of FRET substrate (50 nM) and the combination is incubated for one hour. The FRET assay is terminated by addition of Tris buffer, which raises the pH to neutrality, and the fluorescence is determined. The FRET substrate is a peptide with commercially available fluorophore and quencher, on opposite sides of the BACE cleavage site. Proteolytic cleavage of the FRET substrate releases quenching of fluorescence (excitation 488 nm and emission 590 nm).

[1] = test system: Aβ40 in conditioned medium of cells stably expressing Amyloid Precursor Protein (APP); assay: In vitro BACE-1 cell-based assay (Aβ40 sandwich ELISA); conditions: read-out: IC50 IP (μM) BACE1 cell
Method: In Vitro BACE-1 Cell-Based Assay
The cell-based assay measures inhibition or reduction of Aβ40 in conditioned medium of test compound treated cells expressing amyloid precursor protein. Cells stably expressing Amyloid Precursor Protein (APP) were plated at a density of 40K cells/well in 96 well plates (Costar). The cells were cultivated for 24 hours at 37° C. and 5% CO2 in DMEM supplemented with 10% FBS. The test compounds were then added to cells in 10-point dose response concentrations with the starting concentration being either 100 μM or 10 μM. The compounds were diluted from stock solutions in DMSO and the final DMSO concentration of the test compounds on cells was 0.1%. After 24 h of incubation with the test compounds the supernatant conditioned media was collected and the Aβ40 levels were determined using a sandwich ELISA. The IC50 of the compound was calculated from the percent of control or percent inhibition of Aβ40 as a function of the concentration of the test compound.
The sandwich ELISA to detect Aβ40 was performed in 96 well microtiter plates, which were pre-treated with goat anti-rabbit IgG (Pierce). The capture and detecting antibody pair that were used to detect Aβ40 from cell supernatants were affinity purified pAb40 (Biosource) and biotinylated 6E10 (Signet Labs Inc.), respectively. The optimal concentration for the pAb40 antibody was 3 μg/ml in Superblock/TBS (Pierce) that was supplemented with 0.05% Tween 20 (Sigma). […] Cellular supernatants were incubated with the capture antibody for 3 h at 4° C., followed by 3 wash steps in TBS-tween (0.05%). The detecting antibody incubation was for 2 h at 4° C., again followed by the wash steps as described previously. The final readout of the ELISA is Time-Resolved Fluorescence (counts per minute) using Delfia reagents Streptavidin-Europium and Enhancement solutions (Perkin Elmer) and the Victor 2 multilabel counter (Perkin Elmer).

Recombinant Cat D = Recombinant Cat D (Homo sapiens (Human), UniProt P07339); assay: In vitro enzymatic Cathepsin D (Cat D) FRET assay; type: biochemical; conditions: read-out: IC50 IP (μM) CatD
Method: In Vitro Enzymatic Cathepsin D (Cat D) FRET (Fluorescence Resonance Energy Transfer) Assay
Recombinant Cat D was expressed in CHO cells. The assay buffer for CathepsinD is 0.05 M citrate pH 3.5, 10% DMSO final, 5 mM CHAPS. […] The assays are effectively started by the addition of different FRET substrates (20 nM for Cat D) and the combination is incubated for one hour. The FRET assay is terminated with by addition of Tris buffer, which raises the pH to neutrality, and the fluorescence is determined. The FRET substrate is a peptide with commercially available fluorophore and quencher, on opposite sides of the BACE cleavage site. The Cat D substrate peptide sequence is based on sequence #1 of Table 1 from Gulnik et al. FEBS Letters v413 p 379-384 1997. Proteolytic cleavage of the FRET substrate releases quenching of fluorescence (Cat D excitation 500 nm and emission 580 nm).

Sequence of Recombinant Cat D (P07339 65-412): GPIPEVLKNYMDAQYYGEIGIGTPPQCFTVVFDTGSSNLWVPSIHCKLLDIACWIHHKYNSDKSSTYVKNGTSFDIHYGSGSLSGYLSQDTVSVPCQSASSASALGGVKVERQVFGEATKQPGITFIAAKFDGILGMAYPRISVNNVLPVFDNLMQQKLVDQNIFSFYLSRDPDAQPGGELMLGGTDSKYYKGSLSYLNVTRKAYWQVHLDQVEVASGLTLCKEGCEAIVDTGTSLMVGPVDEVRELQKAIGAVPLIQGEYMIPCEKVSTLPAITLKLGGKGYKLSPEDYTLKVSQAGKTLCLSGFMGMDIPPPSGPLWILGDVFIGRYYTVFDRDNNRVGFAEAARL
Sequence of human recombinant BACE1 (P56817 46-501): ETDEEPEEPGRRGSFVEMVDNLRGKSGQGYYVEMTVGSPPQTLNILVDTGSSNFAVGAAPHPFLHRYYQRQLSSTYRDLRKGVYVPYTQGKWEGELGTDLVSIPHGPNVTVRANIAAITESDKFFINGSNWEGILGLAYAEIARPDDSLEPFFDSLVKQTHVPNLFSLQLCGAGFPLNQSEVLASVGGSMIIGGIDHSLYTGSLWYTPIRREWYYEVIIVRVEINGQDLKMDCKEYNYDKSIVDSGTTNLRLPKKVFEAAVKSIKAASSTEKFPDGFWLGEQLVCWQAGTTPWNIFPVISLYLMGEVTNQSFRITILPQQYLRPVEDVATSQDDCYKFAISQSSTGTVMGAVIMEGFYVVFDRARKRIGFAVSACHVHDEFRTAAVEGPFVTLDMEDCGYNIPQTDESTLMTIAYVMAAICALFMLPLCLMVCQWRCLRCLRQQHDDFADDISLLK

IC50 (human recombinant BACE1) [µM]	IC50 ([1]; BACE1 cell-based assay) [µM]	IC50 (Recombinant Cat D; Cathepsin D FRET enzyme assay) [µM]	IC50 (Recombinant Cat D) [µM]	IC50 [1] [µM]	Compound
0.0141	0.00636	719			COc1cnc(C(=O)Nc2cc(F)c(F)c([C@@]3(C)N=C(N)S[C@H]4C[C@H]43)c2)cn1 [Example 7, N-(3-((1S,5S,6S)-3-amino-5-methyl-2-thia-4-azabicyclo[4.1.0]hept-3-en-5-yl)-4,5-difluorophenyl)-5-methoxy-2-pyrazinecarboxamide]
0.0109	0.00569	797			C[C@]1(c2cc(NC(=O)c3ccc(C#N)cn3)cc(F)c2F)N=C(N)S[C@H]2C[C@H]21 [Example 14, N-(3-((1S,5S,6S)-3-amino-5-methyl-2-thia-4-azabicyclo[4.1.0]hept-3-en-5-yl)-4,5-difluorophenyl)-5-cyano-2-pyridinecarboxamide]
			1300		CCOc1cnc(C(=O)Nc2cc(F)c(F)c([C@@]3(C)N=C(N)S[C@@]4(COC)C[C@H]43)c2)cn1 [Example 1038, N-(3-((1S,5S,6S)-3-amino-1-(methoxymethyl)-5-methyl-2-thia-4-azabicyclo[4.1.0]hept-3-en-5-yl)-4,5-difluorophenyl)-5-ethoxy-2-pyrazinecarboxamide]
				0.0329	C#C[C@H](C)Oc1cnc(C(=O)Nc2cc(F)c(F)c([C@@]3(C)N=C(N)S[C@@]4(CF)C[C@H]43)c2)c(C)n1 [Example 616, N-(3-((1S,5S,6S)-3-amino-1-(fluoromethyl)-5-methyl-2-thia-4-azabicyclo[4.1.0]hept-3-en-5-yl)-4,5-difluorophenyl)-3-methyl-5-(((1S)-1-methyl-2-propyn-1-yl)oxy)-2-pyrazinecarboxamide]
0.0235	0.013	33.5			N#Cc1cnc2c(Nc3cc(F)c(F)c([C@@]4(CF)N=C(N)S[C@@H]5C[C@@H]54)c3)nccc2c1 [Example 27, 8-((3-((1R,5S,6R)-3-amino-5-(fluoromethyl)-2-thia-4-azabicyclo[4.1.0]hept-3-en-5-yl)-4,5-difluorophenyl)amino)-1,7-naphthyridine-3-carbonitrile]
0.0149	0.0533	331			NC1=N[C@](CF)(c2cc(Nc3ncnc4cc(Cl)cnc34)cc(F)c2F)[C@@H]2C[C@@H]2S1 [Example 22, (1S,5S,6S)-5-(5-((7-Chloropyrido[3,2-d]pyrimidin-4-yl)amino)-2,3-difluorophenyl)-5-(fluoromethyl)-2-thia-4-azabicyclo[4.1.0]hept-3-en-3-amine]
				0.0006	[2H]C([2H])(C#C)Oc1cnc(C(=O)Nc2cc(F)c(F)c([C@@]3(C)N=C(N)S[C@@]4(COC)C[C@H]43)c2)cn1 [Example 840]
0.00679	0.0232	366			CCOC(=O)[C@]12C[C@H]1[C@@](C)(c1cc(NC(=O)c3ccc(Cl)cn3)cc(F)c1F)N=C(N)S2 [Example 9, (1S,5S,6S)-ethyl 3-amino-5-(5-(5-chloropicolinamido)-2,3-difluorophenyl)-5-methyl-2-thia-4-azabicyclo[4.1.0]hept-3-ene-1-carboxylate]
0.00188	0.0191	189			COC[C@]12C[C@H]1[C@@](C)(c1cc(Nc3nccc4cc(Cl)cnc34)cc(F)c1F)N=C(N)S2 [Example 24, N-(3-((1S,5S,6S)-3-amino-1-(methoxymethyl)-5-methyl-2-thia-4-azabicyclo[4.1.0]hept-3-en-5-yl)-4,5-difluorophenyl)-3-chloro-1,7-naphthyridin-8-amine]
0.0172	0.0169	34.3			NC1=N[C@](CF)(c2cc(NC(=O)c3ccc(Cl)cn3)cc(F)c2F)[C@@H]2C[C@@H]2S1 [Example 18, N-(3-((1S,5S,6S)-3-amino-5-(fluoromethyl)-2-thia-4-azabicyclo[4.1.0]hept-3-en-5-yl)-4,5-difluorophenyl)-5-chloropicolinamide]
0.00545	0.00431	669			Cc1cc(C#N)cnc1C(=O)Nc1cc(F)c(F)c([C@@]2(C)N=C(N)S[C@H]3C[C@H]32)c1 [Example 19, N-(3-((1S,5S,6S)-3-amino-5-methyl-2-thia-4-azabicyclo[4.1.0]hept-3-en-5-yl)-4,5-difluorophenyl)-5-cyano-3-methyl-2-pyridinecarboxamide]
0.0025	0.571	48.7			CCOC(=O)[C@]12C[C@H]1[C@@](C)(c1cc(Nc3nccc4cc(Cl)cnc34)cc(F)c1F)N=C(N)S2 [Example 25, (1S,5S,6S)-ethyl 3-amino-5-(5-((3-chloro-1,7-naphthyridin-8-yl)amino)-2,3-difluorophenyl)-5-methyl-2-thia-4-azabicyclo[4.1.0]hept-3-ene-1-carboxylate]
0.0145	0.00908	875			COc1cnc(C(=O)Nc2cc(F)c(F)c([C@@]3(CF)N=C(N)S[C@H]4C[C@H]43)c2)cn1 [Example 16, N-(3-((1S,5S,6S)-3-amino-5-(fluoromethyl)-2-thia-4-azabicyclo[4.1.0]hept-3-en-5-yl)-4,5-difluorophenyl)-5-methoxy-2-pyrazinecarboxamide]
				0.000378	C#CCOc1cnc(C(=O)Nc2ccc(F)c([C@@]3(C)N=C(N)S[C@@]4(CF)C[C@H]43)c2)cn1 [Example 822, N-(3-((1S,5S,6S)-3-amino-1-(fluoromethyl)-5-methyl-2-thia-4-azabicyclo[4.1.0]hept-3-en-5-yl)-4-fluorophenyl)-5-(2-propyn-1-yloxy)-2-pyrazinecarboxamide]
				0.00616	NC1=N[C@](CF)(c2cc(Nc3nccc4nc(OCc5ncco5)cnc34)ccc2F)[C@@H]2C[C@]2(c2c[nH]nn2)S1 [Example 957, N-(3-((1S,5S,6S)-3-amino-5-(fluoromethyl)-1-(1H-1,2,3-triazol-4-yl)-2-thia-4-azabicyclo[4.1.0]hept-3-en-5-yl)-4-fluorophenyl)-2-(1,3-oxazol-2-ylmethoxy)pyrido[3,4-b]pyrazin-5-amine]
				0.1	C=CC(C)Oc1cnc(C(=O)Nc2ccc(F)c([C@@]3(C)N=C(N)S[C@@]4(COC)C[C@H]43)c2)cn1 (stereo partly drawn) [Example 1063, N-(3-((1S,5S,6S)-3-amino-1-(methoxymethyl)-5-methyl-2-thia-4-azabicyclo[4.1.0]hept-3-en-5-yl)-4-fluorophenyl)-5-(but-3-en-2-yloxy)pyrazine-2-carboxamide]
				0.0438	C#C[C@H](C)Oc1cnc(C(=O)Nc2cc(F)c(F)c([C@@]3(C)N=C(N)S[C@@]4(COC)C[C@H]43)c2)c(C)n1 [Example 622, N-(3-((1S,5S,6S)-3-amino-1-(methoxymethyl)-5-methyl-2-thia-4-azabicyclo[4.1.0]hept-3-en-5-yl)-4,5-difluorophenyl)-3-methyl-5-(((1S)-1-methyl-2-propyn-1-yl)oxy)-2-pyrazinecarboxamide]
				0.222	C#C[C@H](C)Oc1cnc(C(=O)Nc2ccc(F)c([C@@]3(C)N=C(N)S[C@@]4(C(F)F)C[C@@H]34)c2)c(C)c1 [Example 648, N-(3-((1S,5S,6S)-3-amino-1-(difluoromethyl)-5-methyl-2-thia-4-azabicyclo[4.1.0]hept-3-en-5-yl)-4-fluorophenyl)-3-methyl-5-(((1S)-1-methyl-2-propyn-1-yl)oxy)-2-pyridinecarboxamide]

Compound	IC50 (human recombinant BACE1) [µM]	IC50 ([1]; BACE1 cell-based assay) [µM]	IC50 (Recombinant Cat D; Cathepsin D FRET enzyme assay) [µM]	IC50 (Recombinant Cat D) [µM]	IC50 [1] [µM]
C[C@]1(c2cc(NC(=O)c3ccc(Cl)cn3)cc(F)c2F)N=C(N)S[C@@]2(C(=O)O)C[C@H]21 [Example 899, Lithium (1S,5S,6S)-3-amino-5-(5-(5-chloropicolinamido)-2,3-difluorophenyl)-5-methyl-2-thia-4-azabicyclo[4.1.0]hept-3-ene-1-carboxylate]					2.45
